According to article PMC9176662, “Design, synthesis, molecular modeling and biological evaluation of novel Benzoxazole-Benzamide conjugates via a 2-Thioacetamido linker as potential anti-proliferative agents, VEGFR-2 inhibitors and apoptotic inducers” (Journal of Enzyme Inhibition and Medicinal Chemistry, 2022):

Experiments:
Assay type in all cases: cell-based, human
Bcl-xL [1] = test: Western blot of Bcl-xL expression in HCT-116; conditions: HCT-116, Western blot, normalised to β-actin
Text: (§1) It is well known that the anti-apoptotic proteins Bcl-2 and Bcl-xL are mainly overexpressed in various types of cancer, causing survival of cancer cells and/or drug resistance. Therefore, inhibition of these proteins expression leads to cancer cell death and has been used as a strategy for anticancer drug development. In this study, the impact of compounds 1 and 11 on Bcl-2 and Bcl-xL expression in HCT-116 and MCF-7 cancer cell lines was examined using Western blot analysis and all the data were normalised to β-actin (Figure 9).
(§2) 2.5. Impact of compounds 1 and 11 on the level of anti-apoptotic markers (Bcl-2, and Bcl-xL).
(§3) Gel electrophoresis and immuno-blot analysis of proteins (Western Blot) method was used to examine the effect of compounds 1 and 11 on the level of anti-apoptotic markers (Bcl-2, and Bcl-xL). […]
(§4) The cells were then immediately frozen at −20 °C for 1 h for further lysis and collected by cell scraper and sonicated 2×10s. Total protein concentrations were determined colorimetrically using Bradford method before proceeding to the western blotting. […] Briefly, the membranes were incubated for 1 min with a mixture of equal volumes from ECL solution A and ECL solution B. The chemiluminescent signals were captured using a CCD camera-based imager (Chemi Doc imager, Biorad, USA), and the band intensities were then measured with β-actin as an internal reference protein. […]

Bcl-2 = test: Western blot of Bcl-2 expression in HCT-116; conditions: HCT-116, Western blot, normalised to β-actin
Text: as §1, §2, §3, §4

HCT-116 cells = test: Cell cycle analysis by DNA flow cytometry, HCT-116; conditions: HCT116, 24 h, compound at its IC50 (supplement: 10 μM); for %Pre-G1: control 4.52; for %G2-M: control 18.93; for %S: control 31.56; for %G0-G1: control 49.51
Experimental: It is clearly known that generally the cytotoxic agents exert their anti-proliferative effect via cell cycle arrest at a specific phase. In the present study, due to the excellent in-vitro anti-proliferative activity of conjugates 1 and 11 against both HCT-116 and MCF-7 cancer cell lines as well as their excellent VEGFR-2 inhibitory activities, cell cycle analysis have been carried out for both compounds. […]
2.3. Cell cycle analysis.
HCT-116 and MCF-7 cells were seeded at concentrations of 1 x 10^5 cells per well in a 6-well plate, and then incubated for 24 h. The cells were treated for 24 h with vehicles (0.1 percent DMSO) or 10 μM of compounds 1 or 11. Using ice-cold, 70 percent ethanol at 4 °C, cells were harvested and fixed for 12 h. Ethanol was removed, and the cells were washed by cold PBS.
Then, the cells were incubated in 0.5 mL of PBS containing 1 mg/mL Ranse for 30 min at 37 °C.
In the dark, the cells were stained with propidium iodide for 30 min. Flow cytometer was then used to detect contents of DNA [63]. […]

MCF-7 cells = test: Anti-proliferative activity, SRB assay, MCF-7; conditions: for IC50: SRB assay, 72 h exposure, mean ± SD of three separate experiments; for MCF-7 SI (selectivity index): ratio of IC50 for normal cells (WI-38) to IC50 for MCF-7
Text: Several of these derivatives were reported as acting as competitive inhibitors of different tyrosine kinases, with potent cytotoxic activity against various cell lines[58]^,[59]. […] Thus, in this study a novel series of benzoxazole-benzamide conjugates was initially evaluated for their potential anti-cancer activity against colon cancer cell line (HCT-116), breast cancer cell line (MCF-7) and normal human fibroblasts (WI-38), using the Sulforhodamine B colorimetric (SRB) assay.
2.1. Anti-proliferative activity against HCT-116 and MCF-7 human cancer cells lines.
The sulforhodamine B (SRB) assays were performed according to Skehan et al..
Briefly, exponentially growing cells were trypsinized, counted and seeded at the appropriate densities (5000 cells/100 μL/ well) into 96-well microtiter plates. Cells were incubated in a humidified atmosphere at 37 °C for 24 h. Then, the cells were exposed to the tested compounds at the desired concentrations (0.01, 0.1, 1, 10, and 100 μM) or to 1% dimethyl sulfoxide (DMSO) for 72 h. At the end of the treatment period, the media were removed, and the cells were fixed with 10% trichloroacetic acid at 4 °C for 1 h. Following, the cells were washed with tap water four times and incubated with SRB 0.4% for 30 min. Excess dye was removed by washing repeatedly with 1% (vol/vol) acetic acid. The protein-bound dye was dissolved in 10 mM Tris base solution for (optical density) OD determination at 510 nm using a Spectra Max plus Microplate Reader (Molecular Devices, CA). Cell viability was expressed relative to the untreated control cells. […]

Bcl-xL [2] = test: Western blot of Bcl-xL expression in MCF-7; conditions: MCF-7, Western blot, normalised to β-actin
Text: as §1, §2, §3, §4

O=C(CSc1nc2ccccc2o1)Nc1ccc(C(=O)NC2CCCCC2)cc1 [Compound 1]
Bcl-xL expression (Bcl-xL [1]): inhibited | Bcl-2 expression (Bcl-2): inhibited | %Pre-G1 (HCT-116 cells): 15.36% | %G2-M (HCT-116 cells): 24.41% | %S (HCT-116 cells): 33.25% | %G0-G1 (HCT-116 cells): 42.34% | IC50 (MCF-7 cells; Homo sapiens, MCF7, 72 h): 7.8 ± 0.015 µM | IC50 (MCF-7 cells): 7.2 ± 0.01 µM | MCF-7 SI (selectivity index) (MCF-7 cells): 5.8 | Bcl-xL expression (Bcl-xL [2]): inhibited

O=C(CSc1nc2cc(Cl)ccc2o1)Nc1ccc(C(=O)Nc2ccc(Cl)cc2)cc1 [Compound 11]
Bcl-xL expression (Bcl-xL [1]): inhibited | Bcl-2 expression (Bcl-2): inhibited | %Pre-G1 (HCT-116 cells): 17.41% | %G2-M (HCT-116 cells): 28.44% | %S (HCT-116 cells): 26.19% | %G0-G1 (HCT-116 cells): 45.37% | IC50 (MCF-7 cells; Homo sapiens, MCF7, 72 h): 16.6 ± 0.013 µM | MCF-7 SI (selectivity index) (MCF-7 cells): 6.2 | Bcl-xL expression (Bcl-xL [2]): inhibited
